Data from US20240415914A1, “Water Dispersible Cannabinoid Compositions” (priority 2021, published 2024).

Assay: Stability of cannabinoid and Vitamin E components of Beverage 1 (AB White) stored at 8° C. and 21-25° C., LCMSMS over 570 days
Format: physicochemical
Details: for Stability in AB White, 8° C. (content by LCMSMS): beverage stored at 8° C.; for Stability in AB White, 21-25° C. (content by LCMSMS): beverage stored at 21-25° C.
Method: The LCMSMS was calibrated for 0-1000 ng/ml cannabinoids with the same resin material used in the preparation of the concentrates. At each time period, 100 ml of beverage was diluted with 10 ml of methanol and injected into the LCMSMS for analysis.

## CCCc1cc(O)c2c(c1)OC(C)(C)[C@@H]1CCC(C)=C[C@@H]21 [THCV, delta-9-tetrahydrocannabivarin]
Day 0
  Stability in AB White, 8° C. (content by LCMSMS): 3.6 µg/mL
  Stability in AB White, 21-25° C. (content by LCMSMS): 3.6 µg/mL
Day 1
  Stability in AB White, 8° C. (content by LCMSMS): 3.54 µg/mL
  Stability in AB White, 21-25° C. (content by LCMSMS): 3.48 µg/mL
Day 2
  Stability in AB White, 8° C. (content by LCMSMS): 3.60 µg/mL
  Stability in AB White, 21-25° C. (content by LCMSMS): 3.58 µg/mL
Day 3
  Stability in AB White, 8° C. (content by LCMSMS): 3.55 µg/mL
  Stability in AB White, 21-25° C. (content by LCMSMS): 3.54 µg/mL
Day 5
  Stability in AB White, 8° C. (content by LCMSMS): 3.58 µg/mL
  Stability in AB White, 21-25° C. (content by LCMSMS): 3.55 µg/mL
Day 8
  Stability in AB White, 8° C. (content by LCMSMS): 3.60 µg/mL
  Stability in AB White, 21-25° C. (content by LCMSMS): 3.63 µg/mL
Day 9
  Stability in AB White, 8° C. (content by LCMSMS): 3.61 µg/mL
  Stability in AB White, 21-25° C. (content by LCMSMS): 3.55 µg/mL
Day 10
  Stability in AB White, 8° C. (content by LCMSMS): 3.58 µg/mL
  Stability in AB White, 21-25° C. (content by LCMSMS): 3.55 µg/mL
Day 11
  Stability in AB White, 8° C. (content by LCMSMS): 3.59 µg/mL
  Stability in AB White, 21-25° C. (content by LCMSMS): 3.59 µg/mL
Day 12
  Stability in AB White, 8° C. (content by LCMSMS): 3.50 µg/mL
  Stability in AB White, 21-25° C. (content by LCMSMS): 3.47 µg/mL
Day 15
  Stability in AB White, 8° C. (content by LCMSMS): 3.56 µg/mL
  Stability in AB White, 21-25° C. (content by LCMSMS): 3.48 µg/mL
Day 16
  Stability in AB White, 8° C. (content by LCMSMS): 3.57 µg/mL
  Stability in AB White, 21-25° C. (content by LCMSMS): 3.60 µg/mL
Day 17
  Stability in AB White, 8° C. (content by LCMSMS): 3.61 µg/mL
  Stability in AB White, 21-25° C. (content by LCMSMS): 3.51 µg/mL
Day 18
  Stability in AB White, 8° C. (content by LCMSMS): 3.59 µg/mL
  Stability in AB White, 21-25° C. (content by LCMSMS): 3.50 µg/mL
Day 19
  Stability in AB White, 8° C. (content by LCMSMS): 3.51 µg/mL
  Stability in AB White, 21-25° C. (content by LCMSMS): 3.59 µg/mL
Day 22
  Stability in AB White, 8° C. (content by LCMSMS): 3.60 µg/mL
  Stability in AB White, 21-25° C. (content by LCMSMS): 3.52 µg/mL
Day 23
  Stability in AB White, 8° C. (content by LCMSMS): 3.55 µg/mL
  Stability in AB White, 21-25° C. (content by LCMSMS): 3.57 µg/mL
Day 24
  Stability in AB White, 8° C. (content by LCMSMS): 3.56 µg/mL
  Stability in AB White, 21-25° C. (content by LCMSMS): 3.63 µg/mL
Day 25
  Stability in AB White, 8° C. (content by LCMSMS): 3.56 µg/mL
  Stability in AB White, 21-25° C. (content by LCMSMS): 3.54 µg/mL
Day 26
  Stability in AB White, 8° C. (content by LCMSMS): 3.63 µg/mL
  Stability in AB White, 21-25° C. (content by LCMSMS): 3.55 µg/mL
Day 29
  Stability in AB White, 8° C. (content by LCMSMS): 3.52 µg/mL
  Stability in AB White, 21-25° C. (content by LCMSMS): 3.62 µg/mL
Day 30
  Stability in AB White, 8° C. (content by LCMSMS): 3.59 µg/mL
  Stability in AB White, 21-25° C. (content by LCMSMS): 3.48 µg/mL
Day 60
  Stability in AB White, 8° C. (content by LCMSMS): 3.58 µg/mL
  Stability in AB White, 21-25° C. (content by LCMSMS): 3.50 µg/mL
Day 90
  Stability in AB White, 8° C. (content by LCMSMS): 3.56 µg/mL
  Stability in AB White, 21-25° C. (content by LCMSMS): 3.47 µg/mL
Day 120
  Stability in AB White, 8° C. (content by LCMSMS): 3.56 µg/mL
  Stability in AB White, 21-25° C. (content by LCMSMS): 3.45 µg/mL
Day 150
  Stability in AB White, 8° C. (content by LCMSMS): 3.55 µg/mL
  Stability in AB White, 21-25° C. (content by LCMSMS): 3.54 µg/mL
Day 180
  Stability in AB White, 8° C. (content by LCMSMS): 3.59 µg/mL
  Stability in AB White, 21-25° C. (content by LCMSMS): 3.52 µg/mL
Day 210
  Stability in AB White, 8° C. (content by LCMSMS): 3.44 µg/mL
  Stability in AB White, 21-25° C. (content by LCMSMS): 3.40 µg/mL
Day 240
  Stability in AB White, 8° C. (content by LCMSMS): 3.56 µg/mL
  Stability in AB White, 21-25° C. (content by LCMSMS): 3.41 µg/mL
Day 270
  Stability in AB White, 8° C. (content by LCMSMS): 3.47 µg/mL
  Stability in AB White, 21-25° C. (content by LCMSMS): 3.56 µg/mL
Day 300
  Stability in AB White, 8° C. (content by LCMSMS): 3.46 µg/mL
  Stability in AB White, 21-25° C. (content by LCMSMS): 3.52 µg/mL
Day 330
  Stability in AB White, 8° C. (content by LCMSMS): 3.52 µg/mL
  Stability in AB White, 21-25° C. (content by LCMSMS): 3.55 µg/mL
Day 360
  Stability in AB White, 8° C. (content by LCMSMS): 3.50 µg/mL
  Stability in AB White, 21-25° C. (content by LCMSMS): 3.49 µg/mL
Day 390
  Stability in AB White, 8° C. (content by LCMSMS): 3.47 µg/mL
  Stability in AB White, 21-25° C. (content by LCMSMS): 3.40 µg/mL
Day 420
  Stability in AB White, 8° C. (content by LCMSMS): 3.49 µg/mL
  Stability in AB White, 21-25° C. (content by LCMSMS): 3.46 µg/mL
Day 450
  Stability in AB White, 8° C. (content by LCMSMS): 3.44 µg/mL
  Stability in AB White, 21-25° C. (content by LCMSMS): 3.47 µg/mL
Day 480
  Stability in AB White, 8° C. (content by LCMSMS): 3.44 µg/mL
  Stability in AB White, 21-25° C. (content by LCMSMS): 3.30 µg/mL
Day 510
  Stability in AB White, 8° C. (content by LCMSMS): 3.34 µg/mL
  Stability in AB White, 21-25° C. (content by LCMSMS): 3.32 µg/mL
Day 540
  Stability in AB White, 8° C. (content by LCMSMS): 3.32 µg/mL
  Stability in AB White, 21-25° C. (content by LCMSMS): 3.44 µg/mL
Day 570
  Stability in AB White, 8° C. (content by LCMSMS): 3.30 µg/mL
  Stability in AB White, 21-25° C. (content by LCMSMS): 3.30 µg/mL
